For this experiment, the system named is Tomato (var. Pink Girl). Nature of the experiment: Example 4: effect of enzymatically hydrolyzed protein and phytic acid on tomato growth in greenhouse mix. It is filed as in vivo. The protocol:
Tomato (var. Pink Girl) were grown in a greenhouse mix (⅓ each of components, soil, peat moss and vermiculite). The treatments were arranged in randomized design with 3 replicates for each treatment. Seedlings were harvested and tops weighed forty six days after planting. Treatments included additions of phytic acid and protein hydrolyzate separately and in combination at different concentrations and applied to the soil and as foliar. First application, made two weeks after planting, was both as a foliar and to the soil (50 ml/plant). The second application, made two weeks following the first,) was both to soil (80 ml/plant) and as a foliar.

Each structure is given as a SMILES string.

On to `O=P(O)(O)O[C@H]1[C@H](OP(=O)(O)O)[C@@H](OP(=O)(O)O)[C@H](OP(=O)(O)O)[C@@H](OP(=O)(O)O)[C@H]1OP(=O)(O)O` [Phytic Acid, phytic acid], for which the “% of control” value is, setting by setting: (0.04% P2O5, Foliar) 109%; (0.04% P2O5, Soil application) 109%; (0.1% P2O5, Foliar) 107%; (0.1% P2O5, Soil application) 128%. Also, the “Av. Top fresh wt. of plants” value is, setting by setting: (0.04% P2O5, Foliar) 27.0 gm; (0.04% P2O5, Soil application) 27.0 gm; (0.1% P2O5, Foliar) 26.3 gm; (0.1% P2O5, Soil application) 31.5 gm.

The values above are taken from US20130192322A1, “Plant Fertilizers Derived from Organic Nitrogen and Phosphorus Sources” (priority 2011, published 2013).
